Laboratory results reported in patent US9789146B1, “Synthesis of adansonia digitata nanoparticles” (KING SAUD UNIVERSITY, priority 2017, dated 2017).

What was measured:
Assay in all cases: Antimicrobial activity, diffusion agar technique
Type in all cases: cell-based
Conditions in all cases: well diameter 6.0 mm, 100 μl tested
[1] = tested on: Aspergillus fumigatus (RCMB 02567)
Experimental: (§1) The antimicrobial effect of the Adansonia digitata nanoparticles was evaluated against different gram positive and gram negative bacteria as well as fungi. The test was done using the diffusion agar technique and the well diameter was 6.0 mm (100 μl was tested). The mean zone of inhibition in mm±Standard deviation beyond well diameter (6 mm) produced on a range of environmental and clinically pathogenic microorganisms.

[2] = tested on: Streptococcus pneumoniae (RCMB 010011)
Experimental: as §1

[3] = tested on: Bacillis subtilis (RCMB 010068)
Experimental: as §1

[4] = tested on: Escherichia coli (RCMB 010054)
Experimental: as §1

`C[C@@H]1[C@H](O)[C@@H](C)/C=C/C=C/C=C/C=C/C=C/C=C/C=C/[C@H](O[C@@H]2O[C@H](C)[C@@H](O)[C@H](N)[C@@H]2O)C[C@@H]2O[C@](O)(C[C@@H](O)C[C@@H](O)[C@H](O)CC[C@@H](O)C[C@@H](O)CC(=O)O[C@H]1C)C[C@H](O)[C@H]2C(=O)O` [Amphotericin B] was tested, and the “mean zone of inhibition ± Standard deviation beyond well diameter” value [1] was 21.7 ± 1.5 mm.

`CC1(C)S[C@@H]2[C@H](NC(=O)[C@H](N)c3ccccc3)C(=O)N2[C@H]1C(=O)O` [Ampicillin] was tested, and the “mean zone of inhibition ± Standard deviation beyond well diameter” value [2] was 21.0 ± 1.0 mm and the “mean zone of inhibition ± Standard deviation beyond well diameter” value [3] was 31.3 ± 1.5 mm.

For Gentamicin, the “mean zone of inhibition ± Standard deviation beyond well diameter” value [4] was 20.3 ± 0.58 mm.
